Source: ChEMBL document CHEMBL5120838, “Synthesis and biological evaluation of geniposide derivatives as inhibitors of hyperuricemia, inflammatory and fibrosis” (Eur J Med Chem, 2022)
Activity calls are given as the source filed them. No cut-off for these calls is given here.

Columns and labels:
Mus musculus [1] = test: Anti-hyperuricemic activity against adenine and potassium oxonate-induced hyperuricemia Kunming mouse model assessed as reduction in serum uric acid level at 200 mg/kg, po administered via gavage once daily for 2 weeks (reference value: 318.16 +/- 3.31 uM); type: functional
Mus musculus [2] = test: Anti-hyperuricemic activity against adenine and potassium oxonate-induced hyperuricemia Kunming mouse model assessed as blood urea nitrogen level at 200 mg/kg, po administered via gavage once daily for 2 weeks (reference value: 9.88 +/- 1.21 mM); type: functional
HK-2 [3] = test: Antiinflammatory activity in hyperuricemic human HK-2 cells assessed as reduction in TGF-beta level at 200 uM; type: functional, cell-based
HK-2 [4] = test: Antiinflammatory activity in hyperuricemic human HK-2 cells assessed as reduction in IL-1beta level at 200 uM; type: functional, cell-based
HK-2 [5] = test: Antiinflammatory activity in hyperuricemic human HK-2 cells assessed as reduction in TNF-alpha level at 200 uM; type: functional, cell-based
Mus musculus [6] = test: Anti-hyperuricemic activity against adenine and potassium oxonate-induced hyperuricemia Kunming mouse model assessed as reduction in serum creatinine level at 200 mg/kg, po administered via gavage once daily for 2 weeks (reference value: 87.62 +/- 0.67 uM); type: functional
[7] = biological target: Xanthine dehydrogenase/oxidase (Bos taurus, UniProt P80457); test: Inhibition of bovine XOD assessed as inhibition of uric acid formation using xanthine as substrate preincubated with enzyme for 5 mins followed by substrate addition and measured for 30 mins by microplate reader analysis
Mus musculus [8] = test: Anti-hyperuricemic activity against adenine and potassium oxonate-induced hyperuricemia Kunming mouse model assessed as blood urea nitrogen level at 20 mg/kg, po administered via gavage once daily for 4 weeks (reference value: 15.25 +/- 1.21 mM); type: functional
Mus musculus [9] = test: Anti-hyperuricemic activity against adenine and potassium oxonate-induced hyperuricemia Kunming mouse model assessed as reduction in serum uric acid level at 20 mg/kg, po administered via gavage once daily for 4 weeks (reference value: 356.15 +/- 3.31 uM); type: functional
Mus musculus [10] = test: Renal protective activity against adenine and potassium oxonate-induced hyperuricemia Kunming mouse model assessed as reduction in urate accumulation in kidney at 20 mg/kg, po administered via gavage for 2 weeks by polarization microscopic analysis; type: functional, organism-based
Mus musculus [11] = organism: Mus musculus; details: Kunming, dose 20.0 mg/kg, route po, time 2.0 weeks
Description: In vivo inhibition of XOD in adenine and potassium oxonate-induced hyperuricemia Kunming mouse model assessed as reduction in XOD activity in liver at 20 mg/kg, po administered via gavage once daily for 2 weeks

Mus musculus [12] = test: Anti-hyperuricemic activity against adenine and potassium oxonate-induced hyperuricemia Kunming mouse model assessed as blood urea nitrogen level at 20 mg/kg, po administered via gavage once daily for 2 weeks (reference value: 9.88 +/- 1.21 mM); type: functional
Mus musculus [13] = test: Anti-hyperuricemic activity against adenine and potassium oxonate-induced hyperuricemia Kunming mouse model assessed as reduction in serum creatinine level at 20 mg/kg, po administered via gavage once daily for 2 weeks (reference value: 87.62 +/- 0.67 uM); type: functional
Mus musculus [14] = test: Anti-hyperuricemic activity against adenine and potassium oxonate-induced hyperuricemia Kunming mouse model assessed as reduction in serum uric acid level at 20 mg/kg, po administered via gavage once daily for 2 weeks (reference value: 318.16 +/- 3.31 uM); type: functional
Mus musculus [15] = test: Anti-hyperuricemic activity against adenine and potassium oxonate-induced hyperuricemia Kunming mouse model assessed as reduction in creatinine level at 20 mg/kg, po administered via gavage once daily for 4 weeks (reference value: 76.87 +/- 0.67 uM); type: functional

Chain of Xanthine dehydrogenase/oxidase (P80457 whole entry): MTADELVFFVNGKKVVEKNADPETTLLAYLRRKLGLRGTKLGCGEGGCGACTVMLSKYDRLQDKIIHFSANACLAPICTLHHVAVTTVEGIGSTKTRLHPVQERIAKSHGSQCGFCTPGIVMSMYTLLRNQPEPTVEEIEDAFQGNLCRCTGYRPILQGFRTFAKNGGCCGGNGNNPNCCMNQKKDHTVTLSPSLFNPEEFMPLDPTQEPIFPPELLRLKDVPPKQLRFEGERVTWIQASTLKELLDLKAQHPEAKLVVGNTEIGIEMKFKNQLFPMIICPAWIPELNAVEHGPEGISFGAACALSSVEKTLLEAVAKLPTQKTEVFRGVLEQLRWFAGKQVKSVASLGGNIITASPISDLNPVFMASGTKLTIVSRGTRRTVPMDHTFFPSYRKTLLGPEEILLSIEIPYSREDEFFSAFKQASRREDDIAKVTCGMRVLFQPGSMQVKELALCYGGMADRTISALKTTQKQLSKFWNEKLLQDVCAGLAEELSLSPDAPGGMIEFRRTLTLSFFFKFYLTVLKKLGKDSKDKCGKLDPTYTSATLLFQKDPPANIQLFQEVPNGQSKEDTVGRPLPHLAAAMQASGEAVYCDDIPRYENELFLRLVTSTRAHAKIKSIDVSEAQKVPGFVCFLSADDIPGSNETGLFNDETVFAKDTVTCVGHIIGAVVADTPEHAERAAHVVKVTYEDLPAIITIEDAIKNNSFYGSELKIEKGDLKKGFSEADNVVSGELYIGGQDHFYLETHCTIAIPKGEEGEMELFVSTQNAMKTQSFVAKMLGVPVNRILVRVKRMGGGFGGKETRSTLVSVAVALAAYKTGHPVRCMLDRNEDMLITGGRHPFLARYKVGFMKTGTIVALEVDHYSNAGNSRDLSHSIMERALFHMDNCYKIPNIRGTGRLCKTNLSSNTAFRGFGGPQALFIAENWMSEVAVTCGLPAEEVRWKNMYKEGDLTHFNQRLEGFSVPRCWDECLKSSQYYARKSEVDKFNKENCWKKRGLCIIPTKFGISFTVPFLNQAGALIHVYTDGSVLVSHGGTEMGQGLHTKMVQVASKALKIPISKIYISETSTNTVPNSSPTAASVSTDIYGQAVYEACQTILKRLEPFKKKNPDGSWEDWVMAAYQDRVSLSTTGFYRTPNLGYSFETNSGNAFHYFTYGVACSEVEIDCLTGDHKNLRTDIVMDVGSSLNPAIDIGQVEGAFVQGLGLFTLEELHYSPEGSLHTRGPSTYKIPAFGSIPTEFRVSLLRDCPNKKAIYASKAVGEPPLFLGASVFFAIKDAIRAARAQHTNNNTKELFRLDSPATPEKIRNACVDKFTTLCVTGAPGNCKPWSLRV

COC(=O)C1=CO[C@@H](O[C@@H]2O[C@H](CO)[C@@H](O)[C@H](O)[C@H]2O)[C@@H]2C(CO)=CC[C@H]12 [GENIPOSIDE]
Activity (Mus musculus [1]): 236.72 µM
Activity (Mus musculus [2]): 7 mM
Activity (HK-2 [3]): Active
Activity (HK-2 [4]): Active
Activity (HK-2 [5]): Active
Activity (Mus musculus [6]): 75.09 µM
IC50 [7]: 161 µM

Oc1ncnc2[nH]ncc12 [ALLOPURINOL]
Activity (Mus musculus [8]): 12.58 mM
Activity (Mus musculus [9]): 193.68 µM
Activity (Mus musculus [10]): Active
inhibition (Mus musculus [11]): Active
Activity (Mus musculus [12]): 6.3 mM
Activity (Mus musculus [13]): 63.31 µM
Activity (Mus musculus [14]): 233.62 µM
Activity (Mus musculus [15]): 47.26 µM
